In one assay the test system is wild-type Efl1. As to the kind of experiment: ITC: binding of guanine nucleotides or Sdo1 to wild-type Efl1 (data of ref 6). To be noted: native protein. On the set-up: species or system Saccharomyces cerevisiae.
Assay [1] has as its target T1, Efl1 mutant T33A in complex with Sdo1 and the 60S subunits (Saccharomyces cerevisiae, UniProt P53893, T33A).
T1 construct: made in house; host or cells: Efl1: Saccharomyces cerevisiae; Sdo1: Escherichia coli C41; 60S subunits purified from S. cerevisiae strain JD1370
T1 sequence (P53893 1-1110 T33A): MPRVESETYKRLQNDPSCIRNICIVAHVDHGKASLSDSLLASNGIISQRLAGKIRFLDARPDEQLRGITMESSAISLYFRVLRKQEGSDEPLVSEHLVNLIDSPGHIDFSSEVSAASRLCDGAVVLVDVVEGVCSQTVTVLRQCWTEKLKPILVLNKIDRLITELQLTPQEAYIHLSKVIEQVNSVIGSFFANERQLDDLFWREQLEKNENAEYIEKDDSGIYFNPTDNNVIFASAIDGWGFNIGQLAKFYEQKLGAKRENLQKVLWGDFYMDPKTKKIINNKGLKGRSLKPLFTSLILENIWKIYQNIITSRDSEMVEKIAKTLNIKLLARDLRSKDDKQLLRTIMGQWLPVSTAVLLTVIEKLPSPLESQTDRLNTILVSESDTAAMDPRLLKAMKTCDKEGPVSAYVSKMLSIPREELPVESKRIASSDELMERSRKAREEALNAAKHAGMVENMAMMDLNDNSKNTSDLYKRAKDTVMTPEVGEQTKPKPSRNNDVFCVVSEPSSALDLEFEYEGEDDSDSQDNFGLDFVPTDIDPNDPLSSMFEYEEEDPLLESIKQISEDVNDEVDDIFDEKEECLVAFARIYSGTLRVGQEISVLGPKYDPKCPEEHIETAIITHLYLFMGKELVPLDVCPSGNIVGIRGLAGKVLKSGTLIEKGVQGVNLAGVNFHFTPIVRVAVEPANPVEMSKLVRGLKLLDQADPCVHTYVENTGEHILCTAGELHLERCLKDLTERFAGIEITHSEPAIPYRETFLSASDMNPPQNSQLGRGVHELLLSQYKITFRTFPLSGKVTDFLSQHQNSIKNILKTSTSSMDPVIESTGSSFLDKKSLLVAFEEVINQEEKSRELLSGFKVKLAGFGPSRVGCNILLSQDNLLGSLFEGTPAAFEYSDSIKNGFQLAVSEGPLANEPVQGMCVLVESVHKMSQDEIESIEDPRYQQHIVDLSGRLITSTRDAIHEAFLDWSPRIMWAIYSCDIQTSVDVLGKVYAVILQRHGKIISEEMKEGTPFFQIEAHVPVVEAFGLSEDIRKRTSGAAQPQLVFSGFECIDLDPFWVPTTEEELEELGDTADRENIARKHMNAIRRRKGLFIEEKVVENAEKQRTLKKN
T1 sequence (Q07953 1-250 partner): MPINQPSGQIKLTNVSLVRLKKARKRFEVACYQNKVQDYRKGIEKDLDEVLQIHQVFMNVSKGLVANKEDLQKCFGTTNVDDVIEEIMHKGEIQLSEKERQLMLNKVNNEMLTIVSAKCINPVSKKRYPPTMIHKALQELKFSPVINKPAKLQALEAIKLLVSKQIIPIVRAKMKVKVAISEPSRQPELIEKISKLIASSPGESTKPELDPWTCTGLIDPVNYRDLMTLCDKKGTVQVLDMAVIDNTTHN
Nature of the assay: Steady state fluorescence binding of mant-GTP to Efl1 T33A in complex with Sdo1 and 60S subunits. Conditions: 25 °C, one-binding-site model; read-out: dissociation constant (Kd). The method, then: We measured the binding of different Efl1 constructs present in complex with Sdo1 and 60S subunits to the fluorescence GTP analogue, mant-GTP, by following the increase in the fluorescence signal after excitation at 355 nm. Fluorescence intensities were plotted as a function of increasing nucleotide concentrations, and the dissociation constant (Kd) was calculated by fitting the data to a one-binding-site model (Supplementary Figure S1B).
Hydrolysis of GTP was measured using the Enzchek Phosphate Assay kit (Molecular Probes) as described by Webb. Standard reactions consisted of 100 µL containing 6 µM of Efl1 R1086Q and Efl1 L910K, 0.3 mM MESG, 1.0 U purine nucleoside phosphorylase (PNP) and the indicated amounts of GTP. […]
Reactions were initiated and the GTPase was added after 3 min. Time courses were followed by recording the change in absorbance at 360 nm in a Cary 60 UV -Vis spectrophotometer (Agilent Technologies). Background absorbance was recorded prior to the addition of the GTPase and subtracted from the sample signals. The slope of the measured time courses corresponded to the GTP hydrolysis rate. […] Data were analysed by nonlinear regression to the M ichaelis-Menten equation with the program Origin Version 5.0 (OriginLab, Co., Northampton, MA). […]
Steady state fluorescence measurements […]
Maximum emission at 440 nm was replotted as a function of nucleotide concentration and analysed

The source of these data is publication PMC9405973, “Altered Conformational Landscape upon Sensing Guanine Nucleotides in a Disease Mutant of Elongation Factor-like 1 (EFL1) GTPase” (Biomolecules, 2022).

Turning to `Nc1nc2c(ncn2[C@@H]2O[C@H](COP(=O)(O)OP(=O)(O)OP(=O)(O)O)[C@@H](O)[C@H]2O)c(=O)[nH]1` [GTP], the “overall heat-capacity change to drive the protein into ternary complex GTPase•GTP•Sdo1” value with wild-type Efl1 is −950 cal mol^−1 K^−1.

As for `CNc1ccccc1C(=O)O[C@H]1[C@@H](O)[C@H](n2cnc3c(=O)[nH]c(N)nc32)O[C@@H]1COP(=O)(O)OP(=O)(O)OP(=O)(O)O` [mant-GTP], in assay [1], the Kd came to 24 µM.

As a reminder, the Kd is the concentration at which binding is half-saturated.
